Data taken from US10266550B2, “Bacterial topoisomerase I inhibitors with antibacterial activity” (The Florida International University Board of Trustees, priority 2016, dated 2019).
pIC50: −log10 of the molar value. Values after ≈ are worked out from the molar mass of the structure shown. Like-named read-outs stand apart in the source and are kept apart here.

Tests used:
[1] = biological target: Human topoisomerase I (Homo sapiens (Human), UniProt P11387); test: Human topoisomerase I relaxation inhibition assay; assay type: biochemical; conditions: read-out: Topoisomerase inhibitory activity (IC50) Human topo I (type IB)
Sequence of Human topoisomerase I (P11387 whole entry): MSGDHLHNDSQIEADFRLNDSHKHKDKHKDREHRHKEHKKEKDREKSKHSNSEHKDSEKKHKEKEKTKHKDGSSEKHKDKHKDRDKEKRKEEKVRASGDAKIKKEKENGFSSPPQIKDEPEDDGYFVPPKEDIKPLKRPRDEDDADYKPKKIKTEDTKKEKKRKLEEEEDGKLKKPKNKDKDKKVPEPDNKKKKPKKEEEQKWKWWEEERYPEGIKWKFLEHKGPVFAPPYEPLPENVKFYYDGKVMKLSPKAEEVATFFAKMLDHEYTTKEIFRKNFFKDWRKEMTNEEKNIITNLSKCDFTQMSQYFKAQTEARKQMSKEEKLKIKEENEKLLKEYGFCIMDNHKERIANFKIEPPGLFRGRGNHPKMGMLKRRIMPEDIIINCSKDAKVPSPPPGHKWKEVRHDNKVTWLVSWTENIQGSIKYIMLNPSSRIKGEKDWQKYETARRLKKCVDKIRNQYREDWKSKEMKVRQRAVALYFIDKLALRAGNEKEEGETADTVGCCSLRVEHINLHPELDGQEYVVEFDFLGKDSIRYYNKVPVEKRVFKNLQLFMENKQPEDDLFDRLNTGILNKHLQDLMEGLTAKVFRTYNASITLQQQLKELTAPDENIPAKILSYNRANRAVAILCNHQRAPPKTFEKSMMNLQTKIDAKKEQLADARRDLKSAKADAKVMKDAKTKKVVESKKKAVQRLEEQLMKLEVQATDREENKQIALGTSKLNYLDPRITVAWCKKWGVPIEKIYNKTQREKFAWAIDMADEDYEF
Procedure: Human topoisomerase I relaxation assays were carried out with 0.5 U of enzyme in reaction buffer supplied by the manufacturer. The enzyme was mixed with the indicated concentration of compound dissolved before 200 ng of supercoiled pBAD/Thio plasmid DNA was added in the same buffer, for a final volume of 20 μL. Following incubation at 37° C. for 30 minutes, the reactions were terminated with a buffer containing 5% SDS, 0.25% bromophenol blue, and 25% glycerol, and analyzed by agarose gel electrophoresis.
Human topoisomerase I and topoisomerase IIα were purchased from TopoGen (Buena vista, CO, USA).

[2] = 1H NMR experiments
[3] = test system: bacterial strains; test: Whole cell antibacterial activity after storage; assay type: cell-based; conditions: after 4 weeks of storage
[4] = test system: E. coli Imp4213 (BAS3023); test: MIC, microdilution in Mueller-Hinton Broth; assay type: cell-based; conditions: for MIC: Escherichia coli, read-out: Whole cell based antibacterial activity (MIC) E. coli Imp4213 (BAS3023), membrane permeable imp mutant
[5] = biological target: E. coli DNA gyrase (Escherichia coli (strain K12), UniProt P0AES4+P0AES6); test: DNA gyrase supercoiling inhibition assay; assay type: biochemical; conditions: for pIC50: supercoiling of relaxed DNA, read-out: Topoisomerase inhibitory activity (IC50) E. coli DNA gyrase (type IIA)
Procedure: (§1) Recombinant E. coli topoisomerase I and gyrase expressed in E. coli were purified as described previously.
The samples were incubated at 37° C. for 30 minutes before being terminated by the addition of a buffer containing 5% SDS, 0.25% bromophenol blue, and 25% glycerol. The reactions were then analyzed by agarose gel electrophoresis.

[6] = biological target: Human topoisomerase IIα (Homo sapiens (Human), UniProt P11388); test: Human topoisomerase IIα decatenation inhibition assay; assay type: biochemical; conditions: kDNA decatenation; read-out: Topoisomerase inhibitory activity (IC50) Human topo IIα (type IIA)
Sequence of Human topoisomerase IIα (P11388 whole entry): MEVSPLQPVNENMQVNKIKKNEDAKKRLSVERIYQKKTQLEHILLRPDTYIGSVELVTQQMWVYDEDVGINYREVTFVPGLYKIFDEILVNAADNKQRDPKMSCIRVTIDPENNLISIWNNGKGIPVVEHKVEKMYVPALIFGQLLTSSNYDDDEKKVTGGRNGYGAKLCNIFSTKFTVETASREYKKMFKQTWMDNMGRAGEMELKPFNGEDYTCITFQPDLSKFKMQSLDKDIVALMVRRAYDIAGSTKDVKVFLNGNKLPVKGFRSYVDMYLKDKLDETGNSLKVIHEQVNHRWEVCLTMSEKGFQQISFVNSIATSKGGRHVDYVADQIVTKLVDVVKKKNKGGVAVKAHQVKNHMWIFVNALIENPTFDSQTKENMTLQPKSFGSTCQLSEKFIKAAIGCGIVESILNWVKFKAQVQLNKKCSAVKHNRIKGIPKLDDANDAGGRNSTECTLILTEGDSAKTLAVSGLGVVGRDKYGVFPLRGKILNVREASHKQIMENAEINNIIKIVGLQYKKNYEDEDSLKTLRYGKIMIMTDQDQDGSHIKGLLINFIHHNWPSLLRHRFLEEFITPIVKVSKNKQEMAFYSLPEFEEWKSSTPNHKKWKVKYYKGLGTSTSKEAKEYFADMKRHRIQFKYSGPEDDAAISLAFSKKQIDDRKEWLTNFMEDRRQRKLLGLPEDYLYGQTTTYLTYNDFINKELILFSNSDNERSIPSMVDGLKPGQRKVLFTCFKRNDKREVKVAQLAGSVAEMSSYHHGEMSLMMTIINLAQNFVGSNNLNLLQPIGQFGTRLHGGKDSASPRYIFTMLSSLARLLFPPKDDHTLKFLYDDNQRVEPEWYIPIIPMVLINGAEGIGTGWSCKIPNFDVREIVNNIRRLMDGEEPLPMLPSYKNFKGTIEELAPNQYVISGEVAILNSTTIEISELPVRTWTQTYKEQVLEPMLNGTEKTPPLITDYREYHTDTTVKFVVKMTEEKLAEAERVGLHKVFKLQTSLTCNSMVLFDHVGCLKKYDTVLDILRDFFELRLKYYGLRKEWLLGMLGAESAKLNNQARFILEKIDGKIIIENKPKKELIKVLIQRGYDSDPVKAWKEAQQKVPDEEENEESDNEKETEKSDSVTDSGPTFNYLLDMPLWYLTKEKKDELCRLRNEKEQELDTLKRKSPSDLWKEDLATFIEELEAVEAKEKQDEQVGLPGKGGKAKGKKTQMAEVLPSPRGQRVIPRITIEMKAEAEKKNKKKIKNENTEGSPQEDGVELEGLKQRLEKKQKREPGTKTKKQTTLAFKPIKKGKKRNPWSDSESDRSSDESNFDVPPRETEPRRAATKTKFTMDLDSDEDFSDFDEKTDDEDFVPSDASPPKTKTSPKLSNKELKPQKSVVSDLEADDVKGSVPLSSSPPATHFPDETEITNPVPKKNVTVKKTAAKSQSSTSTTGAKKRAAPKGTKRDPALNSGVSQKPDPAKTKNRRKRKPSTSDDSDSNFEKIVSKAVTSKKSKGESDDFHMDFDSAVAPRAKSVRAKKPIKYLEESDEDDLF
Procedure: Human topoisomerase I and topoisomerase IIα were purchased from TopoGen (Buena vista, CO, USA). […] The reactions were then analyzed by electrophoresis in 1% agarose gels containing […] ethidium bromide before being photographed under UV light.

[7] = biological target: E. coli topoisomerase I (Escherichia coli (strain K12), UniProt P06612); test: biochemical; assay type: biochemical; conditions: for PIC50 (pIC50 = −log IC50): experimental, converted from IC50; for pIC50: relaxation of supercoiled plasmid DNA
Sequence of E. coli topoisomerase I (P06612 whole entry, looked up): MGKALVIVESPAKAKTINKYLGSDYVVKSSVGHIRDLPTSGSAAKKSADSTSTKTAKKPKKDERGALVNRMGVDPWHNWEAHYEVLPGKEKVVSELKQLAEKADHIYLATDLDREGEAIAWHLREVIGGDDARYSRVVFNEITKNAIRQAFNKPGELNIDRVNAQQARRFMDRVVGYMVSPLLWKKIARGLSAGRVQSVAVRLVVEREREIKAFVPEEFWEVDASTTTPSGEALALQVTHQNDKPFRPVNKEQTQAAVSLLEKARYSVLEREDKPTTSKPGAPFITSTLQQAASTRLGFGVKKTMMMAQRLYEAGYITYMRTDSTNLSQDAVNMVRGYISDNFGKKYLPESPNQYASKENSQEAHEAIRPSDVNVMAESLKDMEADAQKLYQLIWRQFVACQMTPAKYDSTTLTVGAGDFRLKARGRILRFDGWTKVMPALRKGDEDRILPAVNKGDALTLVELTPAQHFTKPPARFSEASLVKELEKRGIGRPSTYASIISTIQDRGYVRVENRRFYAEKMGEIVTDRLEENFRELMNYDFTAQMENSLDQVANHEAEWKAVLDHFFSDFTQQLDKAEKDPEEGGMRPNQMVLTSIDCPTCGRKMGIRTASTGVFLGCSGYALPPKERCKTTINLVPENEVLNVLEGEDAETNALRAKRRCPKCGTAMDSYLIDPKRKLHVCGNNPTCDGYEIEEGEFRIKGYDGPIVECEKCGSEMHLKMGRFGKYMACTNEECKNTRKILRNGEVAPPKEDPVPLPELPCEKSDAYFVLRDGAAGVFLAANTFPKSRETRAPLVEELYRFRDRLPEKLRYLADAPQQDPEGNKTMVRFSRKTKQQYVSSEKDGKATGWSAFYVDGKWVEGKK
Procedure: as §1
E. coli Topoisomerase I Relaxation Activity Inhibition Assay
The relaxation activity of E. coli topoisomerase I was assayed in a buffer containing 10 mM Tris-HCl, pH 8.0, 50 mM NaCl, 0.1 mg/mL gelatin, and 0.5 mM MgCl2. Half microliter from the appropriate stock solutions of compounds dissolved in the solvent (DMSO) or the solvent alone (control) was mixed with 9.5 μL of the reaction buffer containing 10 ng of enzyme before the addition of 10 μL of reaction buffer containing 200 ng of supercoiled pBAD/Thio plasmid DNA purified by cesium chloride gradient as substrate. Following incubation at 37° C. for 30 min, the reactions were terminated by the addition of 4 μL of a stop buffer (50% glycerol, 50 mM EDTA, and 0.5% (v/v) bromophenol blue), and analyzed by agarose gel electrophoresis. The gels were stained in ethidium bromide and photographed under UV light.

[8] = test system: E. coli (MG1655) WT; test: MIC, microdilution in Mueller-Hinton Broth; conditions: wild type, read-out: Whole cell based antibacterial activity (MIC) E. coli (MG1655) WT
[9] = test system: M. tuberculosis (H37Rv); test: MIC, microplate Alamar blue assay (MABA); assay type: cell-based
[10] = Vero cell cytotoxicity assay; assay type: cell-based
Procedure: (§2) MICs of compounds against M. tuberculosis were determined by a modified microplate Alamar blue assay (MABA). Vero cell cytotoxicity assay was performed as previously described.

[11] = test system: Vero cells; test: Vero cell cytotoxicity assay; assay type: cell-based; conditions: Chlorocebus sabaeus, Vero; cytotoxicity
Procedure: as §2

[12] = test system: all the test bacteria strains; test: Whole cell antibacterial activity across all test strains; assay type: cell-based; conditions: range over strains; read-out: MICs against all the test bacteria strains
[13] = test system: MRSA (staphylococcus aureus BAA44); test: MIC against MRSA; assay type: cell-based
[14] = biological target: Mycobacterium tuberculosis topoisomerase I (Mycobacterium tuberculosis (strain ATCC 25618 / H37Rv), UniProt P9WG49); test: Mycobacterium tuberculosis topoisomerase I inhibition; assay type: biochemical; conditions: Table 2; read-out: IC50 against Mycobacterium tuberculosis topoisomerase I
[15] = test system: mycobacterium smegmatis in biofilm; test: Biofilm viability by resazurin assay; assay type: cell-based
Procedure: Viability of the mycobacteria mycobacterium smegmatis in biofilm was measured by the resazurin assay.
The resazurin assay is a quick method using the resazurin dye as a bacterial respiration indicator to assay the antibacterial activity of various compounds used against bacterial biofilm growth. Such assay is well-known in the art. […] The biofilm was quantified indirectly by measuring the fluorescent, water-soluble resorufin product produced when resazurin is reduced by reactions associated with respiration.

[16] = test system: several cancer cell lines; conditions: literature [32]; read-out: IC50 against several cancer cell lines; cited from earlier work
[17] = Mycobacterium tuberculosis, H37RV, MABA, read-out: Whole cell based antibacterial activity (MIC) M. tuberculosis (H37Rv)
[18] = Topoisomerase inhibitory activity (IC50) E. coli topo I (type IA)

SMILES | pIC50 [1] | MIC [4] | pIC50 [5] | pIC50 [6] | PIC50 (pIC50 = −log IC50) [7] | MIC ([8]; Escherichia coli, MG1655) | MIC [9, 17] | selectivity ratio ([10]; monkey) | pIC50 [11] | pIC50 [7, 18] | also measured
Nc1ccc2c(c1)Oc1c(F)c(F)cc3c(=O)c(C(=O)O)cn-2c13 [Compound 1, 9-Amino-5,6-difluoro-3-oxo-3H-pyrido[3,2,1-kl]phenoxazine-2-carboxylic acid] | 4.50 | 0.78 to 1.56 µM (≈ 0.258 to 0.515 µg/mL) | < 3.90 | < 3.30 | 5.71 | > 200 µM | – | – | – | – | precipitation in d6-DMSO solvent [2]: could be easily precipitated out; loss of whole cell antibacterial activity after storage [3]: 2-4 fold
O=C(O)c1cn2c3c(c(F)c(F)cc3c1=O)Oc1cc([N+](=O)[O-])c(Cl)cc1-2 [Compound 7e, 10-Chloro-5,6-difluoro-9-nitro-3-oxo-3H-pyrido[3,2,1-kl]phenoxazine-2-carboxylic acid] | 4.51 | 0.39 µM (≈ 0.154 µg/mL) | 4.20 | 3.90 | 4.51 | 50 µM (≈ 19.7 µg/mL) | 29 µM (≈ 11.4 µg/mL) | > 4.4 | < 3.90 | – | selectivity toward topoisomerase I over DNA gyrase [5]: 2 fold
CN1CCN(c2c(F)cc3c(=O)c(C(=O)O)cn4c3c2Oc2cc([N+](=O)[O-])ccc2-4)CC1 [Compound 10a, 5-Fluoro-6-(4-methylpiperazin-1-yl)-9-nitro-3-oxo-3H-pyrido[3,2,1-kl]phenoxazine-2-carboxylic acid] | 4.51 | 1.56 µM (≈ 0.687 µg/mL) | – | 3.30 to 3.60 | 5.71 | 100 µM (≈ 44 µg/mL) | 19 µM (≈ 8.37 µg/mL) | 5 | 4.02 | – | –
CN1CCN(c2c(F)cc3c(=O)c(C(=O)O)cn4c3c2Oc2cc(N)ccc2-4)CC1 [Compound 11a, 9-Amino-5-fluoro-6-(4-methylpiperazin-1-yl)-3-oxo-3H-pyrido[3,2,1-kl]phenoxazine-2-carboxylic acid] | 4.81 | – | – | – | 6.32 | 6.25 µM (≈ 2.57 µg/mL) | – | – | – | 6.01 to 6.62 | MIC [12]: 0.78 to 7.6 µM (≈ 0.32 to 3.12 µg/mL)
Nc1ccc2c(c1)Oc1c(N3CCOCC3)c(F)cc3c(=O)c(C(=O)O)cn-2c13 [Compound 11d, 9-Amino-5-fluoro-6-morpholino-3-oxo-3H-pyrido[3,2,1-kl]phenoxazine-2-carboxylic acid] | 4.81 | 0.19 to 0.39 µM (≈ 0.0755 to 0.155 µg/mL) | 5.11 | 4.81 | 6.01 | > 200 µM | 3.5 µM (≈ 1.39 µg/mL) | 7.1 | 4.61 | – | MIC [13]: 3 µM (≈ 1.19 µg/mL); pIC50 [14]: 6.32
Nc1ccc2c(c1)Oc1c(N3CCC(N4CCCCC4)CC3)c(F)cc3c(=O)c(C(=O)O)cn-2c13 [Compound 11g, 6-([1,4′-Bipiperidin]-1′-yl)-9-amino-5-fluoro-3-oxo-3H-pyrido[3,2,1-kl]phenoxazine-2-carboxylic acid] | 5.41 | 0.39 to 0.78 µM (≈ 0.187 to 0.373 µg/mL) | 4.81 | 5.41 to 5.71 | 6.31 | > 200 µM | 2.5 µM (≈ 1.2 µg/mL) | 9.8 | 4.61 | 6.01 to 6.62 | MIC [13]: 12.5 µM (≈ 5.98 µg/mL); MIC ([9]; Mycobacterium tuberculosis strain H37Rv, Table 2, read-out: MIC (TB)): 2.5 µM (≈ 1.2 µg/mL); pIC50 ([7]; read-out: Topoisomerase inhibitory activity (IC50) E. coli topo I (type IA)): 6.32; concentration that abolishes 90% of viability in biofilm [15]: 1.5 to 3 µM; selectivity ratio ([10]; African green monkey): 9.8; pIC50 [14]: 6.62
Nc1ccc2c(c1)Oc1c(NCCN3CCOCC3)c(F)cc3c(=O)c(C(=O)O)cn-2c13 [Compound 11h, 9-Amino-5-fluoro-6-((2-morpholinoethyl)amino)-3-oxo-3H-pyrido[3,2,1-kl]phenoxazine-2-carboxylic acid] | 4.81 to 5.11 | – | 4.51 to 4.81 | – | – | – | – | – | 4.37 | – | MIC ([9]; MABA, read-out: Whole cell based antibacterial activity (MIC) M. tuberculosis (H37Rv)): 21.6 µM (≈ 9.51 µg/mL); Whole cell based antibacterial activity (MIC) E. coli Imp4213 (BAS3023) ([4]; membrane permeable imp mutant): 0.78 µM; MIC [8]: >200 µM
N[C@H]1CCN(c2c(F)cc3c(=O)c(C(=O)O)cn4c3c2Oc2cc([N+](=O)[O-])ccc2-4)C1 [Compound 16, (S)-6-(3-aminopyrrolidin-1-yl)-5-fluoro-9-nitro-3-oxo-3H-pyrido[3,2,1-kl]phenoxazine-2-carboxylic acid] | 5.11 | 1.56 µM (≈ 0.665 µg/mL) | 5.41 | – | 6.32 | > 200 µM | > 50 µM | – | < 4.30 | 6.01 to 6.62 | –
N[C@H]1CCN(c2c(F)cc3c(=O)c(C(=O)O)cn4c3c2Oc2ccccc2-4)C1 [Compound A-62176] | – | – | – | – | – | – | – | – | – | – | pIC50 [16]: 5.36 to 6.06
O=C(O)c1cn(C2CC2)c2cc(N3CCNCC3)c(F)cc2c1=O [ciprofloxacin, reference compound] | – | – | – | – | – | – | – | – | – | – | concentration that abolishes 90% of viability in biofilm [15]: ≥ 24 µM
